Reference: patent US20090221687A1, “Tetracyclic Monoamine Reuptake Inhibitors for Treatment of Cns Diseases and Disorders” (priority 2005, published 2009)
Read-outs that look alike come from different tables or passages of the source.

Tests used:
[1] = biological target: T1, Serotonin Transporter (SERT) (Homo sapiens, UniProt P31645); settings: human recombinant HEK-293 cells, historical value for the KD of the ligand, cited from earlier work
T1 construct: expressed in transfected cells; host or cells: HEK-293 cells

[2] = biological target: T2, Norepinephrine Transporter (NET) (Homo sapiens, UniProt P23975); settings: read-out: KD of the radioligand; human recombinant MDCK cells; historical value for the KD of the ligand; cited from earlier work
T2 construct: expressed in transfected cells; host or cells: MDCK cells

mice = test: Tail-suspension test in mice: evaluation of antidepressive efficacy; format: in vivo; settings: 10 mg/kg i.p., 30 min prior to testing, vehicle control 70%
Text: The aim of this study was to evaluate potential antidepressant activity of selected compounds Formula I. The tail suspension test has been routinely employed to test potential antidepressant compounds (See H. G. Vogel and W. H. Vogel, Drug Discovery and Evaluation, Pharmacological Assays, Springer-Verlag, 1997, p 304-305). The percentage of drug-treated animals showing the passive behavior (i.e., the immobility that mice display after active and unsuccessful attempts to escape when suspended by the tail) is measured and compared with vehicle-treated control animals. The duration of immobility is recorded for about 5 minutes. Mice are considered immobile when they hang passively and completely motionless for at least 1 minute. Active antidepressants reduce the immobility.
Groups of 9 animals were treated with compounds encompassed by Formula I (0.1-10 mg/kg; s.c.), or fluoxetine (10 mg/kg i.p.), and one group of 15 animals was treated with the vehicle by s.c. injection as a […] control. All animals were treated for 30 min prior to testing. The percentage of drug-treated animals showing passive behavior was determined and compared with vehicle-treated controls. […]

logP = format: physicochemical
pKa = format: physicochemical
solubility = format: physicochemical; settings: at 25° C. and ionic strength 0.15 M; read-out: solubility (S)

T1 sequence (P31645 whole entry): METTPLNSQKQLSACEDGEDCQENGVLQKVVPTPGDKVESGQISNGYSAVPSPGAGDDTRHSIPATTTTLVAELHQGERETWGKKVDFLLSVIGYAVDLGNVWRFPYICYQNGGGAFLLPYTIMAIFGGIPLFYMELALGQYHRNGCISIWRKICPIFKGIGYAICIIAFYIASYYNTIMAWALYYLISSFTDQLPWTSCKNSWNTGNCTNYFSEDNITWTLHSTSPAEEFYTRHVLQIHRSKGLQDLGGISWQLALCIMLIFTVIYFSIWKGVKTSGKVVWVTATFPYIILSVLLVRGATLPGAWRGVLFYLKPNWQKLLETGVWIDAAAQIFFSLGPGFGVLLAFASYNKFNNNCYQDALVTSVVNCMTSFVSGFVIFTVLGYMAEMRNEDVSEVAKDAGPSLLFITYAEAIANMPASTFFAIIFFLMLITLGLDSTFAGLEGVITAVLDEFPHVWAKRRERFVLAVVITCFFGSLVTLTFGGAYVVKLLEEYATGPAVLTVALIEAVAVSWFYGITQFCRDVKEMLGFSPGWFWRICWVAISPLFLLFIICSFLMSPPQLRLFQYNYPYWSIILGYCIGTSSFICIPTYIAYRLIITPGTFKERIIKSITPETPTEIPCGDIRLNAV
T2 sequence (P23975 whole entry): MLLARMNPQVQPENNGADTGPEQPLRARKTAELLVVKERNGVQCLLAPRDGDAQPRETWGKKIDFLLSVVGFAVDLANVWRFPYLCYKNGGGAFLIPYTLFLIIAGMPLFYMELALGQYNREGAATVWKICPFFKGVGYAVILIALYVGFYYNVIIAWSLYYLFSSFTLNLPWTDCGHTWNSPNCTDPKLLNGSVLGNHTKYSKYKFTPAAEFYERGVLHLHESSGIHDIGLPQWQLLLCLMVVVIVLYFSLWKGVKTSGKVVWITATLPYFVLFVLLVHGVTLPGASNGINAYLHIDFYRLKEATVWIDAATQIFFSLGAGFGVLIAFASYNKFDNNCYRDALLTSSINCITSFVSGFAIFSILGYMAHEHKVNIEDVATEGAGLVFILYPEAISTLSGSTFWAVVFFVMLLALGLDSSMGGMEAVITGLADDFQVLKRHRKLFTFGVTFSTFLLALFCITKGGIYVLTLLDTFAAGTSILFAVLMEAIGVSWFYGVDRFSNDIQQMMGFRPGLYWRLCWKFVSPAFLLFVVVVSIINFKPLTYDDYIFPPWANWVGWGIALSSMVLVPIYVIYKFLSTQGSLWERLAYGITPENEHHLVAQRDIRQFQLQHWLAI

In the case of `COC(=O)[C@H]1[C@@H](c2ccc(I)cc2)C[C@@H]2CC[C@H]1N2C` [[^125I] RTI-55, 3 beta-(4-iodophenyl)tropan-2 beta-carboxylic acid methyl ester], the Kd ([1]; read-out: KD1 of the radioligand) is listed as 0.00017 µM, the Kd ([1]; read-out: KD2 of the radioligand) is listed as 2.2 µM and the Kd [2] is listed as 0.024 µM.
For `CNCCC(Oc1ccc(C(F)(F)F)cc1)c1ccccc1` (stereo not shown) [fluoxetine], the “percentage of animals depressive (exhibiting passive behavior)” value (mice) was 22%.
`CCOC(=O)c1cc2c(s1)-c1cc(Cl)cc(OCCCN(C)C)c1Oc1ccccc1-2.O=C(O)CC(O)(CC(=O)O)C(=O)O` [Example 2, 11-Chloro-9-(3-dimethylamino-propoxy)-8-oxa-1-thia-dibenzo[e,h]azulene-2-carboxylic acid ethyl ester citrate salt] gave a logP (logP) of 4.5, a pKa (pKa) of 6.9 and a solubility (solubility) of 167 mg/mL.
